Data taken from US20260001888A1, “PYRAZOLOPYRIMIDINE PDE9 INHIBITORS” (Merck Sharp & Dohme LLC, priority 2018, published 2026).

Target: Human PDE9 (PDE9A2) (Homo sapiens (Human), UniProt O76083)
Experiment: PDE9 IMAP fluorescence polarization (FP) inhibition assay
Type: biochemical
Conditions: apparent inhibition constant; human PDE9A2, FAM-cGMP substrate 50 nM, room temperature
Outline: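 N-terminal GST-tagged full-length PDE9A2 membrane prep (0.5 ng/ml final) preincubated 30 min with compound at room temperature, then 50 nM FAM-cGMP added for 60 min; IMAP binding reagent stops reaction, FP read after 1 h. Controls: known PDE9 inhibitor (100%), 1% DMSO (0%). KI from four-parameter fit.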

Chain of Human PDE9 (PDE9A2) (O76083 other isoform, or with tags, fused parts or gaps): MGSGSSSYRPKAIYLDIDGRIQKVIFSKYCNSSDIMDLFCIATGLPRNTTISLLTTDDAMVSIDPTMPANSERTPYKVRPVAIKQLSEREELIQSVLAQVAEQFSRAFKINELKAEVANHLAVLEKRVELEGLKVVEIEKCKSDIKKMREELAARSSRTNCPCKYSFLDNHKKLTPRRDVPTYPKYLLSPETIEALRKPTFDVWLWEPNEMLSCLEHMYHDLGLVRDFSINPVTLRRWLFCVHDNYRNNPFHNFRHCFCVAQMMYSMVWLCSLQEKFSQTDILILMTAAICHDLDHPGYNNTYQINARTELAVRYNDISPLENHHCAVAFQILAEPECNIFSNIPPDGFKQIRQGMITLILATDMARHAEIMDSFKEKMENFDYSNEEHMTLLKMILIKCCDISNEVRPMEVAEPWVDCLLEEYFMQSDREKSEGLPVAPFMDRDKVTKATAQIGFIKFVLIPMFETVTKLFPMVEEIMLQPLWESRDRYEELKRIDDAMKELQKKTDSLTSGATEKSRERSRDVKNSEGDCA

Row | Compound | Ki [nM]
1 | CCC(c1ncc(F)cn1)N(C)c1nc2c(c(C#N)nn2C(C)c2ccc(C3CC3)cc2)c(=O)[nH]1 (single isomer, unassigned) [Example 69, 1-[1-(4-cyclopropylphenyl)ethyl]-6-[1-(5-fluoropyrimidin-2-yl)propyl-methyl-amino]-4-oxo-5H-pyrazolo[3,4-d]pyrimidine-3-carbonitrile] | 14.9
2 | CCC(Nc1nc2c(c(C#N)nn2C(C)c2ccc(C(F)(F)F)nc2)c(=O)[nH]1)c1ncccn1 (single isomer, unassigned) [Example 72, 4-Oxo-6-((1-(pyrimidin-2-yl)propyl)amino)-1-(1-(6-(trifluoromethyl)pyridin-3-yl)ethyl)-4,5-dihydro-1H-pyrazolo[3,4-d]pyrimidine-3-carbonitrile] | 21.9
3 | CCC(c1ncc(F)cn1)N(C)c1nc2c(c(C#N)nn2C(C)c2ccc(C(F)(F)F)nc2)c(=O)[nH]1 (single isomer, unassigned) [Example 76, 6-((1-(5-fluoropyrimidin-2-yl)propyl)(methyl)amino)-4-oxo-1-(1-(6-(trifluoromethyl)pyridin-3-yl)ethyl)-4,5-dihydro-1H-pyrazolo[3,4-d]pyrimidine-3-carbonitrile] | 55.1
4 | CCC(c1ncc(F)cn1)N(C)c1nc2c(c(C#N)nn2C(C)c2ccc(C(F)(F)F)nc2)c(=O)[nH]1 (single isomer, unassigned) [Example 78, 6-((1-(5-fluoropyrimidin-2-yl)propyl)(methyl)amino)-4-oxo-1-(1-(6-(trifluoromethyl)pyridin-3-yl)ethyl)-4,5-dihydro-1H-pyrazolo[3,4-d]pyrimidine-3-carbonitrile] | 34.2
5 | CC(c1ccc(C(F)(F)F)nc1)n1nc(C#N)c2c(=O)[nH]c(CCc3ncccn3)nc21 (single isomer, unassigned) [Example 80, 4-oxo-6-(2-(pyrimidin-2-yl)ethyl)-1-(1-(6-(trifluoromethyl)pyridin-3-yl)ethyl)-4,5-dihydro-1H-pyrazolo[3,4-d]pyrimidine-3-carbonitrile] | 120
6 | CC(c1ccc(C(F)(F)F)nc1)n1nc(C#N)c2c(=O)[nH]c(CCc3ncc(C4CC4)cn3)nc21 (single isomer, unassigned) [Example 82, 6-(2-(5-cyclopropylpyrimidin-2-yl)ethyl)-4-oxo-1-(1-(6-(trifluoromethyl)pyridin-3-yl)ethyl)-4,5-dihydro-1H-pyrazolo[3,4-d]pyrimidine-3-carbonitrile] | 16.2
7 | CC(Cc1nc2c(c(C#N)nn2C(C)c2ccc(C(F)(F)F)nc2)c(=O)[nH]1)c1ncccn1 (single isomer, unassigned) [Example 83, 4-oxo-6-(2-(pyrimidin-2-yl)propyl)-1-(1-(6-(trifluoromethyl)pyridin-3-yl)ethyl)-4,5-dihydro-1H-pyrazolo[3,4-d]pyrimidine-3-carbonitrile] | 60.7
8 | CC(Cc1nc2c(c(C#N)nn2C(C)c2ccc(C(F)(F)F)nc2)c(=O)[nH]1)c1ncccn1 (single isomer, unassigned) [Example 84, 4-oxo-6-(2-(pyrimidin-2-yl)propyl)-1-(1-(6-(trifluoromethyl)pyridin-3-yl)ethyl)-4,5-dihydro-1H-pyrazolo[3,4-d]pyrimidine-3-carbonitrile] | 111
9 | CC(Cc1nc2c(c(C#N)nn2C(C)c2ccc(C(F)(F)F)nc2)c(=O)[nH]1)c1ncccn1 (single isomer, unassigned) [Example 86, 4-oxo-6-(2-(pyrimidin-2-yl)propyl)-1-(1-(6-(trifluoromethyl)pyridin-3-yl)ethyl)-4,5-dihydro-1H-pyrazolo[3,4-d]pyrimidine-3-carbonitrile] | 33.4
10 | CCC(Cc1nc2c(c(C#N)nn2C(C)c2ccc(C(F)(F)F)nc2)c(=O)[nH]1)c1ncccn1 (single isomer, unassigned) [Example 87, 4-oxo-6-(2-(pyrimidin-2-yl)butyl)-1-(1-(6-(trifluoromethyl)pyridin-3-yl)ethyl)-4,5-dihydro-1H-pyrazolo[3,4-d]pyrimidine-3-carbonitrile] | 93.4

The remaining lines, values ahead:

Row | Ki [nM] | Compound
11 | 14.7 | CCC(c1ncc(F)cn1)N(C)c1nc2c(c(C#N)nn2C(C)c2ccc(C3CC3)nc2)c(=O)[nH]1 (single isomer, unassigned) [Example 63, 1-[1-(6-cyclopropyl-3-pyridyl)ethyl]-6-[1-(5-fluoropyrimidin-2-yl)propyl-methyl-amino]-4-oxo-5H-pyrazolo[3,4-d]pyrimidine-3-carbonitrile]
12 | 11.9 | CCC(c1ncc(F)cn1)N(C)c1nc2c(c(C#N)nn2C(C)c2ccc(C3CC3)nc2)c(=O)[nH]1 (single isomer, unassigned) [Example 64, 1-[1-(6-cyclopropyl-3-pyridyl)ethyl]-6-[1-(5-fluoropyrimidin-2-yl)propyl-methyl-amino]-4-oxo-5H-pyrazolo[3,4-d]pyrimidine-3-carbonitrile]
13 | 0.03 | CCC(c1ncc(F)cn1)N(C)c1nc2c(c(C#N)nn2C(C)c2ccc(C3CC3)nc2)c(=O)[nH]1 (single isomer, unassigned) [Example 65, 1-[1-(6-cyclopropyl-3-pyridyl)ethyl]-6-[1-(5-fluoropyrimidin-2-yl)propyl-methyl-amino]-4-oxo-5H-pyrazolo[3,4-d]pyrimidine-3-carbonitrile]
14 | 0.6 | CCC(c1ncc(F)cn1)N(C)c1nc2c(c(C#N)nn2C(C)c2ccc(C3CC3)nc2)c(=O)[nH]1 (single isomer, unassigned) [Example 66, 1-[1-(6-cyclopropyl-3-pyridyl)ethyl]-6-[1-(5-fluoropyrimidin-2-yl)propyl-methyl-amino]-4-oxo-5H-pyrazolo[3,4-d]pyrimidine-3-carbonitrile]
15 | 0.71 | CCC(c1ncc(F)cn1)N(C)c1nc2c(c(C#N)nn2C(C)c2ccc(C3CC3)cc2)c(=O)[nH]1 (single isomer, unassigned) [Example 67, 1-[1-(4-cyclopropylphenyl)ethyl]-6-[1-(5-fluoropyrimidin-2-yl)propyl-methyl-amino]-4-oxo-5H-pyrazolo[3,4-d]pyrimidine-3-carbonitrile]
16 | 0.73 | CCC(c1ncc(F)cn1)N(C)c1nc2c(c(C#N)nn2C(C)c2ccc(C3CC3)cc2)c(=O)[nH]1 (single isomer, unassigned) [Example 68, 1-[1-(4-cyclopropylphenyl)ethyl]-6-[1-(5-fluoropyrimidin-2-yl)propyl-methyl-amino]-4-oxo-5H-pyrazolo[3,4-d]pyrimidine-3-carbonitrile]
17 | 0.02 | CCC(c1ncc(F)cn1)N(C)c1nc2c(c(C#N)nn2C(C)c2ccc(C3CC3)cc2)c(=O)[nH]1 (single isomer, unassigned) [Example 70, 1-[1-(4-cyclopropylphenyl)ethyl]-6-[1-(5-fluoropyrimidin-2-yl)propyl-methyl-amino]-4-oxo-5H-pyrazolo[3,4-d]pyrimidine-3-carbonitrile]
18 | 11.9 | CCC(Nc1nc2c(c(C#N)nn2C(C)c2ccc(C(F)(F)F)nc2)c(=O)[nH]1)c1ncccn1 (single isomer, unassigned) [Example 71, 4-Oxo-6-((1-(pyrimidin-2-yl)propyl)amino)-1-(1-(6-(trifluoromethyl)pyridin-3-yl)ethyl)-4,5-dihydro-1H-pyrazolo[3,4-d]pyrimidine-3-carbonitrile]
19 | 0.25 | CCC(Nc1nc2c(c(C#N)nn2C(C)c2ccc(C(F)(F)F)nc2)c(=O)[nH]1)c1ncccn1 (single isomer, unassigned) [Example 73, 4-Oxo-6-((1-(pyrimidin-2-yl)propyl)amino)-1-(1-(6-(trifluoromethyl)pyridin-3-yl)ethyl)-4,5-dihydro-1H-pyrazolo[3,4-d]pyrimidine-3-carbonitrile]
20 | 11.4 | CCC(Nc1nc2c(c(C#N)nn2C(C)c2ccc(C(F)(F)F)nc2)c(=O)[nH]1)c1ncccn1 (single isomer, unassigned) [Example 74, 4-Oxo-6-((1-(pyrimidin-2-yl)propyl)amino)-1-(1-(6-(trifluoromethyl)pyridin-3-yl)ethyl)-4,5-dihydro-1H-pyrazolo[3,4-d]pyrimidine-3-carbonitrile]
21 | 3.31 | CCC(c1ncc(F)cn1)N(C)c1nc2c(c(C#N)nn2C(C)c2ccc(C(F)(F)F)nc2)c(=O)[nH]1 (single isomer, unassigned) [Example 75, 6-((1-(5-fluoropyrimidin-2-yl)propyl)(methyl)amino)-4-oxo-1-(1-(6-(trifluoromethyl)pyridin-3-yl)ethyl)-4,5-dihydro-1H-pyrazolo[3,4-d]pyrimidine-3-carbonitrile]
22 | 0.27 | CCC(c1ncc(F)cn1)N(C)c1nc2c(c(C#N)nn2C(C)c2ccc(C(F)(F)F)nc2)c(=O)[nH]1 (single isomer, unassigned) [Example 77, 6-((1-(5-fluoropyrimidin-2-yl)propyl)(methyl)amino)-4-oxo-1-(1-(6-(trifluoromethyl)pyridin-3-yl)ethyl)-4,5-dihydro-1H-pyrazolo[3,4-d]pyrimidine-3-carbonitrile]
23 | 3.96 | CC(c1ccc(C(F)(F)F)nc1)n1nc(C#N)c2c(=O)[nH]c(CCc3ncccn3)nc21 (single isomer, unassigned) [Example 79, 4-oxo-6-(2-(pyrimidin-2-yl)ethyl)-1-(1-(6-(trifluoromethyl)pyridin-3-yl)ethyl)-4,5-dihydro-1H-pyrazolo[3,4-d]pyrimidine-3-carbonitrile]
24 | 0.5 | CC(c1ccc(C(F)(F)F)nc1)n1nc(C#N)c2c(=O)[nH]c(CCc3ncc(C4CC4)cn3)nc21 (single isomer, unassigned) [Example 81, 6-(2-(5-cyclopropylpyrimidin-2-yl)ethyl)-4-oxo-1-(1-(6-(trifluoromethyl)pyridin-3-yl)ethyl)-4,5-dihydro-1H-pyrazolo[3,4-d]pyrimidine-3-carbonitrile]
25 | 1.17 | CC(Cc1nc2c(c(C#N)nn2C(C)c2ccc(C(F)(F)F)nc2)c(=O)[nH]1)c1ncccn1 (single isomer, unassigned) [Example 85, 4-oxo-6-(2-(pyrimidin-2-yl)propyl)-1-(1-(6-(trifluoromethyl)pyridin-3-yl)ethyl)-4,5-dihydro-1H-pyrazolo[3,4-d]pyrimidine-3-carbonitrile]
